Reference: patent publication US10329243B2, “Biphenyl derivative and uses thereof” (XI'AN LIBANG PHARMACEUTICAL CO., LTD, priority 2015, dated 2019)

Experiments:
Assay type in all cases: in vivo, SD rats
[1] = test system: rats with cerebral ischemic reperfusion injury; assay: Relative infarct volume (TTC, imageJ), cerebral ischemic reperfusion MCAO model
Procedure: (§1) Rats were intraperitoneally injected with 10% chloral hydrate 350 mg/kg after anesthesia and opened up at the center of the neck in accordance with the Zea Longa modified method. The right common carotid artery was separated, and the right external carotid artery branches was ligated. A small opening was made at the distal end of the external carotid artery, and a previously prepared thread was inserted through the common carotid artery and the external carotid artery bifurcation into the internal carotid artery, till the anterior end of the middle cerebral artery, with an immersed depth of 18 to 19 mm. The thread was then secured, and the wound was sutured layer by layer. After the operation, the rats were placed in a clean incubator to wake up. […] The sham operation group, the ischemic reperfusion group, and the Example groups were prepared strictly according to the requirements of the cerebral ischemic reperfusion model, while in the sham operation group the thread was put only into the external carotid artery. The animals were allowed to eat and drink freely after waking up. After 2 h, the thread was pulled out to achieve reperfusion. The sham operation group, the ischemic reperfusion group, and the Example groups were administered intravenously the aqueous solution of the biphenyl derivatives in PEG400 at 40 mg/kg (40 mg/kg means that 40 mg of the test compound per kg of the body weight of rats) 30 min before reperfusion and 12 h after reperfusion, respectively. The sham operation group and the ischemic reperfusion group were injected with the same amount of blank PEG400 aqueous solution at the same time point.
(§2) 24 hours after reperfusion, 8 rats in each group were sacrificed by decapitation, the brain was removed, rinsed with PBS (pH 7.4) at −20° i for 20 min, evenly sliced (with a thickness of 2 mm), stained in a 2% TTC solution at 37°% in the dark for 30 min, fixed in 10% formalin for 24 h, and photographs were taken to analyze the infarct volume. A mixture of femoral arterial and venous blood was drawn from another 8 rats in each group under anesthesia, placed in a low temperature centrifuge at 4° C., centrifuged at 3500 r/min for 20 min, and the supernatant was stored in a refrigerator at −20° C. ready for SOD and MDA detection. After the blood was drawn, a perfusion needle was insert through the apex to the ascending aorta, and saline at 4° C. was rapid infused until the effluent became clear, followed by 4% paraformaldehyde phosphate buffer perfusion for fixation; the brain was removed by craniotomy, and brain tissues 2 mm in front of and behind the optic chiasma were taken and fixed, dehydrated, rendered transparent, impregnated in wax, and embedded. Brain continuous coronary tissue pathological sections were consecutively cut for later use. The remaining 8 rats in each group were sacrificed, brains were removed, the ischemic brain hemispheres were immediately taken on an ice tray, and 10% brain tissue homogenate was prepared for the detection of IL-1β and TNF-α.
The infarct area in each brain section was analyzed and quantified by the imageJ image software, and the ratio of cerebral infarction volume in the overall brain volume was calculated.

SOD [2] = assay: SOD determination, cerebral ischemic reperfusion MCAO model
Procedure: as §1, §2
(§3) SOD and MDA were determined strictly in accordance with instructions of the kit.

SOD [3] = assay: SOD determination, permanent cerebral ischemia model
Procedure: as §1, with “the permanent cerebral ischemia model” for “the ischemic reperfusion”, “up.” for “up. After 2 h, the thread was pulled out to achieve reperfusion.”, “before insertion of thread” for “before reperfusion”, “after embolism,” for “after reperfusion,”
as §2, with “the embolism,” for “reperfusion,”, “−20°i” for “−20° i”
as §3

TNF-α [4] = assay: Determination of TNF-α in brain tissue homogenate, permanent cerebral ischemia model
Procedure: as §1, with “the permanent cerebral ischemia model” for “the ischemic reperfusion”, “up.” for “up. After 2 h, the thread was pulled out to achieve reperfusion.”, “before insertion of thread” for “before reperfusion”, “after embolism,” for “after reperfusion,”
as §2, with “the embolism,” for “reperfusion,”, “−20°i” for “−20° i”
(§4) Brain tissue homogenate was hypothermally centrifuged at 3000 rpm for 15 min, the supernatant was taken, and IL-1β and TNF-α were determined in strict accordance with instructions of the kits.

IL-1β [5] = assay: Determination of IL-1β in brain tissue homogenate, cerebral ischemic reperfusion MCAO model
Procedure: as §1, §2, §4

TNF-α [6] = assay: Determination of TNF-α in brain tissue homogenate, cerebral ischemic reperfusion MCAO model
Procedure: as §1, §2, §4

IL-1β [7] = assay: Determination of IL-1β in brain tissue homogenate, permanent cerebral ischemia model
Procedure: as §1, with “the permanent cerebral ischemia model” for “the ischemic reperfusion”, “up.” for “up. After 2 h, the thread was pulled out to achieve reperfusion.”, “before insertion of thread” for “before reperfusion”, “after embolism,” for “after reperfusion,”
as §2, with “the embolism,” for “reperfusion,”, “−20°i” for “−20° i”
as §4

[8] = ischemic reperfusion rat model, edaravone 3 mg/kg
[9] = permanent cerebral ischemia model rats, edaravone 3 mg/kg
[10] = permanent cerebral ischemia model rats, 40 mg/kg intravenously, 10% brain tissue homogenate, 24 h after the embolism, 40 mg/kg
[11] = ischemic reperfusion MCAO rats, 40 mg/kg intravenously, 10% brain tissue homogenate, 24 h after reperfusion, 40 mg/kg
[12] = ischemic reperfusion MCAO rats, 40 mg/kg intravenously 30 min before and 12 h after reperfusion, 24 h after reperfusion
[13] = ischemic reperfusion MCAO rats, 40 mg/kg intravenously 30 min before and 12 h after reperfusion, serum, 24 h after reperfusion
[14] = permanent cerebral ischemia model rats, 40 mg/kg intravenously, serum, 24 h after the embolism
[15] = permanent cerebral ischemia model rats, 40 mg/kg intravenously, 10% brain tissue homogenate, 24 h after the embolism
[16] = ischemic reperfusion MCAO rats, 40 mg/kg intravenously, 10% brain tissue homogenate, 24 h after reperfusion

| Molecule | Relative Brain infarction volume (%) [1, 12] [%] | SOD ACTIVITY (U/mL) (SOD [2]; [13]) | SOD ACTIVITY (U/mL) (SOD [3]; [14]) | TNF-α content (TNF-α [4]; [15]) [ng/mL] | IL-1β content (IL-1β [5]; [16]) [ng/mL] | TNF-α content (TNF-α [6]; [16]) [ng/mL] | IL-1β content (IL-1β [7]; [15]) [ng/mL] | other results |
| --- | --- | --- | --- | --- | --- | --- | --- | --- |
| 3,3′,5,5′-tetraisopropylbiphenyl-4,4′-bis(oxymethylene phosphate) [Example 3 group] |  |  |  |  |  |  |  | Relative Brain infarction volume (%) ([1]; rat, in vivo, iv, 40 mg/kg): 25.41 ± 3.59 %; SOD ACTIVITY (U/mL) (SOD [2]; rat, in vivo, iv, 40 mg/kg): 93.15 ± 3.05 U/mL; SOD ACTIVITY (U/mL) (SOD [3]; rat, in vivo, iv, 40 mg/kg): 93.61 ± 2.13 U/mL; TNF-α content (TNF-α [4]; rat, in vivo, iv, 40 mg/kg): 4.45 ± 0.91 ng/mL; IL-1β content (IL-1β [5]; rat, in vivo, iv, 40 mg/kg): 0.66 ± 0.05 ng/mL; TNF-α content (TNF-α [6]; rat, in vivo, iv, 40 mg/kg): 4.26 ± 0.54 ng/mL; IL-1β content (IL-1β [7]; rat, in vivo, iv, 40 mg/kg): 0.67 ± 0.08 ng/mL |
| CC1=NN(c2ccccc2)C(=O)C1 [Edaravone injection, edaravone, reference compound] |  |  |  |  |  |  |  | Relative Brain infarction volume (%) [1, 8]: 29.31 ± 3.95 %; SOD ACTIVITY (U/mL) (SOD [2]; [8]): 88.16 ± 3.99 U/mL; SOD ACTIVITY (U/mL) (SOD [3]; [9]): 90.62 ± 3.81 U/mL; TNF-α content (TNF-α [4]; [9]): 5.53 ± 0.54 ng/mL; IL-1β content (IL-1β [5]; [8]): 0.75 ± 0.05 ng/mL; TNF-α content (TNF-α [6]; [8]): 5.14 ± 0.44 ng/mL; IL-1β content (IL-1β [7]; [9]): 0.76 ± 0.04 ng/mL |
| CC(=O)Oc1c(C(C)C)cc(-c2cc(C(C)C)c(O)c(C(C)C)c2)cc1C(C)C [Example 1 group, 4′-hydroxy-3,3′,5,5′-tetraisopropylbiphenyl-4-acetate] |  |  |  |  |  |  |  | Relative Brain infarction volume (%) ([1]; ischemic reperfusion MCAO rats, 40 mg/kg intravenously 30 min before and 12 h after reperfusion, 24 h after reperfusion, 40 mg/kg): 18.71 ± 4.69 %; SOD ACTIVITY (U/mL) (SOD [2]; ischemic reperfusion MCAO rats, 40 mg/kg intravenously 30 min before and 12 h after reperfusion, serum, 24 h after reperfusion, 40 mg/kg): 96.78 ± 2.94 U/mL; SOD ACTIVITY (U/mL) (SOD [3]; permanent cerebral ischemia model rats, 40 mg/kg intravenously, serum, 24 h after the embolism, 40 mg/kg): 97.36 ± 4.51 U/mL; TNF-α content (TNF-α [4]; [10]): 4.25 ± 0.66 ng/mL; IL-1β content (IL-1β [5]; [11]): 0.63 ± 0.12 ng/mL; TNF-α content (TNF-α [6]; [11]): 4.11 ± 0.72 ng/mL; IL-1β content (IL-1β [7]; [10]): 0.64 ± 0.09 ng/mL |
| CC(=O)Oc1c(C(C)C)cc(-c2cc(C(C)C)c(OC(C)=O)c(C(C)C)c2)cc1C(C)C [Example 2 group, 3,3′,5,5′-tetraisopropylbiphenyl-4′-diacetate] | 23.22 ± 3.12 | 94.46 ± 2.19 | 93.28 ± 3.49 | 5.15 ± 0.88 | 0.79 ± 0.11 | 5.03 ± 0.59 | 0.78 ± 0.12 |  |
| CC(C)c1cc(-c2cc(C(C)C)c(OC(=O)CCC(=O)O)c(C(C)C)c2)cc(C(C)C)c1O [Example 5 group, [4-(4′-hydroxy-3,3′,5,5′-tetraisopropylbiphenyl)oxy]-4-carbonyl butyric acid] | 23.55 ± 5.67 | 95.01 ± 3.22 | 95.31 ± 4.11 | 5.23 ± 0.48 | 0.74 ± 0.09 | 5.01 ± 0.59 | 0.72 ± 0.11 |  |
| CCCc1cc(-c2cc(CCC)c(O)c(C(C)C)c2)cc(C(C)C)c1O [Example 6 group, 4,4′-dihydroxy-3,3′-diisopropyl-5,5′-dipropylbiphenyl] | 19.35 ± 4.02 | 96.89 ± 3.49 | 97.21 ± 4.36 | 4.99 ± 0.53 | 0.64 ± 0.03 | 4.16 ± 0.44 | 0.55 ± 0.05 |  |
| CCCc1cc(-c2cc(CCC)c(O)c(CCC)c2)cc(CCC)c1O [Example 7 group, 4,4′-dihydroxy-3,3′,5,5′-tetrapropylbiphenyl] | 19.29 ± 3.54 | 94.51 ± 2.19 | 98.28 ± 3.18 | 4.26 ± 0.40 | 0.63 ± 0.08 | 4.32 ± 0.61 | 0.57 ± 0.08 |  |
| CC(C)c1cc(-c2cc(C(C)C)c(C(=O)O)c(C(C)C)c2)cc(C(C)C)c1O [Example 8 group, 4′-hydroxy-3,3′,5,5′-tetraisopropylbiphenyl-4-carboxylic acid] | 25.83 ± 2.38 | 96.09 ± 3.33 | 96.90 ± 3.69 | 4.39 ± 0.73 | 0.64 ± 0.14 | 4.35 ± 0.46 | 0.65 ± 0.08 |  |
| CC(C)c1cc(-c2cc(C(C)C)c(Cl)c(C(C)C)c2)cc(C(C)C)c1O [Example 9 group, 4-chloro-4′-hydroxy-3,3′,5,5′-tetraisopropylbiphenyl] |  |  |  |  |  |  |  | Relative Brain infarction volume (%) ([1]; rat, in vivo, iv, 40 mg/kg): 24.74 ± 6.13 %; SOD ACTIVITY (U/mL) (SOD [2]; rat, in vivo, iv, 40 mg/kg): 92.26 ± 2.96 U/mL; SOD ACTIVITY (U/mL) (SOD [3]; rat, in vivo, iv, 40 mg/kg): 93.62 ± 2.73 U/mL; TNF-α content (TNF-α [4]; rat, in vivo, iv, 40 mg/kg): 5.17 ± 0.40 ng/mL; IL-1β content (IL-1β [5]; rat, in vivo, iv, 40 mg/kg): 0.63 ± 0.07 ng/mL; TNF-α content (TNF-α [6]; rat, in vivo, iv, 40 mg/kg): 5.02 ± 0.39 ng/mL; IL-1β content (IL-1β [7]; rat, in vivo, iv, 40 mg/kg): 0.62 ± 0.12 ng/mL |
| CC(C)c1cc(-c2cc(C(C)C)c(OC=O)c(C(C)C)c2)cc(C(C)C)c1O [Example 10 group] | 23.91 ± 5.44 | 95.16 ± 3.88 | 94.08 ± 2.83 | 5.05 ± 0.54 | 0.67 ± 0.05 | 4.68 ± 0.61 | 0.66 ± 0.06 |  |
| CC(C)c1cc(-c2cc(C(C)C)c(OC(=O)C(N)C(C)C)c(C(C)C)c2)cc(C(C)C)c1O (centres unmarked) [Example 11 group, 4′-hydroxy-3,3′,5,5′-tetraisopropylbiphenyl-2-amino-3-methylbutyrate] | 23.59 ± 4.11 | 96.71 ± 4.29 | 95.76 ± 3.93 | 5.16 ± 0.43 | 0.71 ± 0.07 | 5.31 ± 0.51 | 0.76 ± 0.04 |  |
